Patent US20230159667A1, “BIOCOMPATIBLE CARRIER FORMULATION FOR APPLICATIONS IN PLANT PROTECTION AND PLANT GROWTH STIMULATION OR IN COSMETICS AND PERSONAL CARE ON THE BASIS OF MODIFIED STARCH” (Amynova Polymers GmbH, priority 2020, published 2023)
Like-named read-outs stand apart in the source and are kept apart here.

Assay: Active ingredient remaining on foliage after rainfall
[1] = sprayed with the invention as adjuvant vs fungicide alone, 27 mm rainfall 2009, 24 mm 2010

Compound | rain fastness on leaves (residues remaining on foliage after rainfall) | rain fastness on leaves (residues remaining on foliage after rainfall) [1]
COc1ccc(C(=CC(=O)N2CCOCC2)c2ccc(Cl)cc2)cc1OC [dimethomorph] | Improved rain fastness | –
O=[N+]([O-])c1cc(C(F)(F)F)c(Cl)c([N+](=O)[O-])c1Nc1ncc(C(F)(F)F)cc1Cl [fluazinam] | – | Improved rain fastness
Mancozeb | – | Improved rain fastness
